Measurements taken from patent publication US20240116951A1, “HETEROCYCLIC COMPOUNDS AND USES THEREOF” (Kumquat Biosciences Inc., priority 2022, published 2024).

What was measured:
Format in all cases: binding
KRAS G12S = target: T1, KRAS G12S (Homo sapiens, UniProt P01116, G12S); experiment: HTRF assay of K-Ras G12S interaction with SOS1 (PPI-HTRF); details: 5 nM KRAS G12S, read-out: PPI-HTRF-5 nM KRAS G12S
T1 construct: made in house; host or cells: E. coli, e.g. BL21 (DE3)
Summary of the method: (§1)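 HTRF on GST-K-Ras/His-hSOS1 was measured after ≥10 min in pH 7.4 HEPES buffer. IC50 values were derived from the ratiometric emission signal.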

KRAS G12D = target: T2, KRAS G12D (Homo sapiens, UniProt P01116, G12D); experiment: HTRF assay of K-Ras G12D interaction with SOS1 (PPI-HTRF); details: HTRF, 5 nM KRAS G12D; read-out: PPI-HTRF-5 nM KRAS G12D
T2 construct: made in house; host or cells: E. coli, e.g. BL21 (DE3)
T2 sequence (P01116 1-188 isoform P01116-2 G12D): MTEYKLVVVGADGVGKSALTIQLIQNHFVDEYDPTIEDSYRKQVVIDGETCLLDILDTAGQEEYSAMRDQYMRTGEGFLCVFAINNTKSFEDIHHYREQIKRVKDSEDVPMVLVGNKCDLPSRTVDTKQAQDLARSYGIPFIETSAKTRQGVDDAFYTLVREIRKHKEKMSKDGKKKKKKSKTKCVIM
Summary of the method: as §1

KRAS WT = target: T3, KRAS WT (Homo sapiens, UniProt P01116); experiment: HTRF assay of wildtype K-Ras interaction with SOS1 (PPI-HTRF); details: HTRF, 5 nM KRAS WT; read-out: PPI-HTRF-5 nM KRAS WT
T3 construct: made in house; host or cells: E. coli, e.g. BL21 (DE3)
T3 sequence (P01116 1-188 isoform P01116-2): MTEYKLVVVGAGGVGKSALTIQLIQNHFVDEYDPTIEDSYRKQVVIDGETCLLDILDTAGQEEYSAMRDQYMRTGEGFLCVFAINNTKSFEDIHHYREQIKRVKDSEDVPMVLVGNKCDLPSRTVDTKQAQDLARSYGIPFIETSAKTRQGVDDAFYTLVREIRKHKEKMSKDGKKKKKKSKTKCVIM
Summary of the method: as §1

Measured: IC50

T1 sequence (P01116 1-188 isoform P01116-2 G12S): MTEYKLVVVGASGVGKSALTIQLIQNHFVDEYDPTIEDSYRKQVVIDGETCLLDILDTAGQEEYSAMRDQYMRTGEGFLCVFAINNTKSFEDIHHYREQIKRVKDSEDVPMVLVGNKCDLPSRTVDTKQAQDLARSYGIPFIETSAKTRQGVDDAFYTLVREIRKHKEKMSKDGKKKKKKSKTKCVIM

N#Cc1c(N)sc2c(F)ccc(-c3c(Cl)cc4c(N5CCCC6(CCCN6)C5)nc(OC[C@@]56CCCN5C[C@H](F)C6)nc4c3F)c12 (stereo partly drawn) [Compound 218, 2-amino-4-(6-chloro-8-fluoro-2-(((2R,7aS)-2-fluorotetrahydro-1H-pyrrolizin-7a(5H)-yl)methoxy)-4-(1,7-diazaspiro[4.5]decan-7-yl)quinazolin-7-yl)-7-fluorobenzo[b]thiophene-3-carbonitrile]
< 5 µM: all assays above

C[C@H]1CN(C(=O)n2cnc(F)n2)[C@]12CCN(c1nc(OC[C@@]34CCCN3C[C@H](F)C4)nc3c(F)c(-c4ccc(F)c5sc(N)c(C#N)c45)c(Cl)cc13)C2 [Compound 255, 2-amino-4-(6-chloro-8-fluoro-4-((3S,4R)-1-(3-fluoro-1H-1,2,4-triazole-1-carbonyl)-3-methyl-1,6-diazaspiro[3.4]octan-6-yl)-2-(((2R,7aS)-2-fluorotetrahydro-1H-pyrrolizin-7a(5H)-yl)methoxy)quinazolin-7-yl)-7-fluorobenzo[b]thiophene-3-carbonitrile]
< 5 µM: all assays above

C#Cc1c(F)ccc2cc(O)cc(-c3ncc4c(N5CCC6(CCN6C(=O)n6cncn6)C5)nc(OC[C@@]56CCCN5C[C@H](F)C6)nc4c3F)c12 (stereo partly drawn) [Compound 270, (6-(7-(8-ethynyl-7-fluoro-3-hydroxynaphthalen-1-yl)-8-fluoro-2-(((2R,7aS)-2-fluorotetrahydro-1H-pyrrolizin-7a(5H)-yl)methoxy)pyrido[4,3-d]pyrimidin-4-yl)-1,6-diazaspiro[3.4]octan-1-yl)(1H-1,2,4-triazol-1-yl)methanone]
< 5 µM: all assays above

N#Cc1c(N)sc2c(F)ccc(-c3c(Cl)cc4c(N5CCC6(COCCN6C(=O)C6CC6(F)F)C5)nc(OC[C@@]56CCCN5C[C@H](F)C6)nc4c3F)c12 (stereo partly drawn) [Compound 258, 2-amino-4-(6-chloro-4-(6-(2,2-difluorocyclopropane-1-carbonyl)-9-oxa-2,6-diazaspiro[4.5]decan-2-yl)-8-fluoro-2-(((2R,7aS)-2-fluorotetrahydro-1H-pyrrolizin-7a(5H)-yl)methoxy)quinazolin-7-yl)-7-fluorobenzo[b]thiophene-3-carbonitrile]
< 5 µM: all assays above

N#Cc1c(N)sc2c(F)ccc(-c3c(Cl)cc4c(N5CC[C@@]6(CCN6)C5)nc(OC[C@@]56CCCN5C[C@H](F)C6)nc4c3F)c12 [Compound 331, 2-amino-4-(6-chloro-8-fluoro-2-(((2R,7aS)-2-fluorotetrahydro-1H-pyrrolizin-7a(5H)-yl)methoxy)-4-((S)-1,6-diazaspiro[3.4]octan-6-yl)quinazolin-7-yl)-7-fluorobenzo[b]thiophene-3-carbonitrile]
< 5 µM: all assays above

N#Cc1cnn(C(=O)N2CCC23CCN(c2nc(OC[C@@]45CCCN4C[C@H](F)C5)nc4c(F)c(-c5ccc(F)c6sc(N)c(C#N)c56)c(Cl)cc24)C3)c1 (stereo partly drawn) [Compound 309, 1-(6-(7-(2-amino-3-cyano-7-fluorobenzo[b]thiophen-4-yl)-6-chloro-8-fluoro-2-(((2R,7aS)-2-fluorotetrahydro-1H-pyrrolizin-7a(5H)-yl)methoxy)quinazolin-4-yl)-1,6-diazaspiro[3.4]octane-1-carbonyl)-1H-pyrazole-4-carbonitrile]
< 5 µM: all assays above
